Patent US20090270390A1, “PYRIMIDINE DERIVATIVES” (AstraZeneca, priority 2006, published 2009)

Legend:
p110α Type Ia human PI3K = biological target: T1, p110α Type Ia human PI3K (Homo sapiens, UniProt P42336); assay: In vitro PI3K enzyme assay (AlphaScreen), Test (a); format: biochemical; settings: read-out: IC50 versus p110α Type Ia human PI3K
T1 construct: full length DNA of each of the p110α, p110β and p110δ Type Ia human PI3K p110 isoforms; 6-His; made in house; Grp1 PH domain made in E. coli
T1 sequence (P42336 whole entry, the tested form may be a part, canonical isoform): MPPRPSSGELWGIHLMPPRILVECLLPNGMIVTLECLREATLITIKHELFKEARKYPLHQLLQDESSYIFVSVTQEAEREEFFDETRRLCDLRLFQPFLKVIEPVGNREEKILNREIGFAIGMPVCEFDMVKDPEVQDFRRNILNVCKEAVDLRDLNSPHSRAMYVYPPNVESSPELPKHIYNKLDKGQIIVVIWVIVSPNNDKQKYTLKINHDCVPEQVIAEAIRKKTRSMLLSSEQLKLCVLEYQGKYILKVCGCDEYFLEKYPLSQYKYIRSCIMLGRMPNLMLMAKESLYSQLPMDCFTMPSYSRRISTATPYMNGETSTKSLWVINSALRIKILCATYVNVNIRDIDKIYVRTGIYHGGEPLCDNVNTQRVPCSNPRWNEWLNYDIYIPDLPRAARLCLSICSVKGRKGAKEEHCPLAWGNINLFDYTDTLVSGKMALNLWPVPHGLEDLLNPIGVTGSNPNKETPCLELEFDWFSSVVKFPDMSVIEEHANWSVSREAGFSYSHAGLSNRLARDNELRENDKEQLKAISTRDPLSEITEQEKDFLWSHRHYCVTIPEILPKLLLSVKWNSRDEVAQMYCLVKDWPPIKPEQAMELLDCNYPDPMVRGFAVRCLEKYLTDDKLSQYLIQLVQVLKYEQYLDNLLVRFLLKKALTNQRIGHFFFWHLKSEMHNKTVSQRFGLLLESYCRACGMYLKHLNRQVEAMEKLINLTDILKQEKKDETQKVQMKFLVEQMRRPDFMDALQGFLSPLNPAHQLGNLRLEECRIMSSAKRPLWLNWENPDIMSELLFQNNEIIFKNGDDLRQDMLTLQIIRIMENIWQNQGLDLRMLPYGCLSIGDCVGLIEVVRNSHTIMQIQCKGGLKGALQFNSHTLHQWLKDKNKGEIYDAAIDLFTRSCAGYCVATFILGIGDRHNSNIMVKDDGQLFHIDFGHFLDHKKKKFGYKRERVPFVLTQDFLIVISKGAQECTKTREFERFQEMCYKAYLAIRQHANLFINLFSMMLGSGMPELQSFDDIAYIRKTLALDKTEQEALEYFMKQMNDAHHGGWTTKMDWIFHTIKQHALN
T1 sequence (P27986 whole entry partner, the tested form may be a part, canonical isoform): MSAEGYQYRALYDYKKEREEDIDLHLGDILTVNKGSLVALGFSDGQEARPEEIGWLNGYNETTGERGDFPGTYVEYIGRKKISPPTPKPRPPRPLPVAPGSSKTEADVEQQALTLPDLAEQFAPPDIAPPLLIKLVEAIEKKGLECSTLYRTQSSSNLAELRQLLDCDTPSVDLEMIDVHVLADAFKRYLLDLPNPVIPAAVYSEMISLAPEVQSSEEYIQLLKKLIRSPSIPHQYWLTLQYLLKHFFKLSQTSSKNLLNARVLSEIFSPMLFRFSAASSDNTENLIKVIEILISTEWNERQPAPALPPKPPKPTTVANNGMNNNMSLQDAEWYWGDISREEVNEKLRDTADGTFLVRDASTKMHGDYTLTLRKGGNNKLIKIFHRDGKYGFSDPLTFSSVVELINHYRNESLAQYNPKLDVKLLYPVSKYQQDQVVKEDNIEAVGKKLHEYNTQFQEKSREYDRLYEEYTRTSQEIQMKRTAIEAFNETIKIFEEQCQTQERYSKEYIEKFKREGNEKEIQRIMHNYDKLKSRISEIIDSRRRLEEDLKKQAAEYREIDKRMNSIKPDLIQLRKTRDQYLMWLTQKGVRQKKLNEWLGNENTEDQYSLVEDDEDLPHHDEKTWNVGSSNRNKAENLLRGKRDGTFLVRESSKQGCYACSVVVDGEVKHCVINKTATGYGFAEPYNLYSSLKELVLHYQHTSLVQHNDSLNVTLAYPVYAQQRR
Text: The assay used AlphaScreen technology (Gray et al., Analytical Biochemistry, 2003, 313: 234-245) to determine the ability of test compounds to inhibit phosphorylation by recombinant Type I PI3K enzymes of the lipid PI(4,5)P2.
DNA fragments encoding human PI3K catalytic and regulatory subunits were isolated from cDNA libraries using standard molecular biology and PCR cloning techniques. The selected DNA fragments were used to generate baculovirus expression vectors. In particular, full length DNA of each of the p110α, p110β and p110δ Type Ia human PI3K p110 isoforms (EMBL Accession Nos. HSU79143, S67334, Y10055 for p110α, p110β and p110δ respectively) were sub-cloned into a pDEST10 vector (Invitrogen Limited, Fountain Drive, Paisley, UK). The vector is a Gateway-adapted version of Fastbac 1 containing a 6-His epitope tag. […]
Biotinylated-DiC8-PI(3,4,5)P3 (50 nM; Cell Signals Inc., Catalogue No. 107), recombinant purified GST-Grp1 PH protein (2.5 nM) and AlphaScreen Anti-GST donor and acceptor beads (100 ng; Packard Bioscience Limited, Station Road, Pangbourne, Berkshire, UK, Catalogue No. 6760603M) were added and the assay plates were left for about 5 to 20 hours at room temperature in the dark. The resultant signals arising from laser light excitation at 680 nm were read using a Packard AlphaQuest instrument. […]

[1] = test system: phosphorylation of Serine 473 in Akt in MDA-MB-468 human breast adenocarcinoma cell line; assay: In vitro phospho-Ser473 Akt assay, Test (c); format: cell-based; settings: MDA-MB-468 cells, read-out: IC50 (inhibition of Serine 473 phosphorylation in Akt)
Procedure: This assay determines the ability of test compounds to inhibit phosphorylation of Serine 473 in Akt as assessed using Acumen Explorer technology (TTP LabTech Limited, Royston, Herts, SG8 6EE, UK), a plate reader that can be used to rapidly quantitate features of images generated by laser-scanning.
A MDA-MB-468 human breast adenocarcinoma cell line (LGC Promochem, Teddington, Middlesex, UK, Catalogue No. HTB-132) was routinely maintained at 37° C. with 5% CO2 up to a confluency of 70-90% in DMEM containing 10% FCS and 1% L-glutamine.
For the assay, the cells were detached from the culture flask using ‘Accutase’ (Innovative Cell Technologies Inc., San Diego, Calif., USA; Catalogue No. AT104) using standard tissue culture methods and resuspended in media to give 5.5×10^4 cells per ml. Aliquots (90 μl) were seeded into each of the inner 60 wells of a black ‘Costar’ 96-well plate (Corning Inc., NY, USA; Catalogue No. 3904) to give a density of ˜5000 cells per well. Aliquots (90 μl) of culture media were placed in the outer wells to prevent edge effects. [An alternative cell handling procedure involved the maintenance of the cells in a ‘SelecT’ robotic device (The Automation Partnership, Royston, Herts SG8 5WY, UK). Cells were resuspended in media to give 5×10^4 cells per ml. Aliquots (100 μl) were seeded into the wells of a black ‘Costar’ 96-well plate.] […]

- IC50 (p110α Type Ia human PI3K): ~100 nM
- IC50 [1]: ~10 nM
SMILES: NCC(=O)N1CCN(c2cc(N3CCOCC3)nc(-n3c(C(F)F)nc4ccccc43)n2)CC1 [Example 1, 2-(2-difluoromethylbenzimidazol-1-yl)-4-(4-glycylpiperazin-1-yl)-6-morpholinopyrimidine]
